Experiments:
Test in all cases: Sensitivity to C-390 in medium W
Assay type in all cases: cell-based
Set-up in all cases: key: NG: no growth; Tr: traces
Aspergillus flavus (ENV) = test system: Aspergillus flavus (ENV)
Procedure: (§1) An evaluation of the sensitivity to C-390 of various microorganisms capable of infecting the airways was carried out. This evaluation was carried out using medium W of example 4, containing a variable concentration of C-390. Table 10 below collates the observations collected with regard to the intensity of growth of the strains tested as a function of the C-390 concentration of the medium. The abbreviations NG (“no growth”) and Tr (“traces”) signify that no growth was observed or only a few not very significant traces.

[1] = test system: Aspergillus fumigatus (Anon)
Procedure: as §1

[2] = test system: Burkholderia ambifaria (LMG 19467)
Procedure: as §1

[3] = test system: Burkholderia cenocepacia (640328)
Procedure: as §1

[4] = test system: Burkholderia cenocepacia (LMG 18830); conditions: C-390 32 mg/l in medium W
Procedure: as §1

[5] = test system: Burkholderia cenocepacia (LMG 18832)
Procedure: as §1

[6] = test system: Burkholderia cepacia (LMG 1222)
Procedure: as §1

[7] = test system: Burkholderia cepacia (LMG 18821)
Procedure: as §1

[8] = test system: Burkholderia contaminans (40007X)
Procedure: as §1

[9] = test system: Burkholderia gladioli (ENV)
Procedure: as §1

[10] = test system: Burkholderia multivorans (645914C)
Procedure: as §1

[11] = test system: Burkholderia multivorans (LMG 18822)
Procedure: as §1

[12] = test system: Burkholderia multivorans (LMG 18824)
Procedure: as §1

[13] = test system: Burkholderia pyrrocinia (LMG 21824)
Procedure: as §1

[14] = test system: Burkholderia stabilis (716237)
Procedure: as §1

[15] = test system: Burkholderia stabilis (LMG18870)
Procedure: as §1

Fusarium oxysporum (ENV) = test system: Fusarium oxysporum (ENV)
Procedure: as §1

[16] = test system: Geosmithia argillacea (Anon)
Procedure: as §1

[17] = test system: Scedosporium apiospermum (Anon)
Procedure: as §1

[18] = test system: Scedosporium prolificans (Anon)
Procedure: as §1

**Q.** Which intensity of growth (Aspergillus flavus (ENV); C-390 8 mg/l in medium W) does the source give for CCN(CC)c1ccc(C2(Cl)c3ccccc3N(c3ccccc3)c3ccccc32)cc1 [Medium C-390, 9-chloro-9-(4′-diethylamino)phenyl-9,10-dihydro-10-phenylacridine] here?
**A.** NG

**Q.** What about the intensity of growth (Aspergillus flavus (ENV); C-390 16 mg/l in medium W) of the same molecule?
**A.** NG

**Q.** What about the intensity of growth (Aspergillus flavus (ENV); C-390 32 mg/l in medium W) of the same molecule?
**A.** NG

**Q.** What about the intensity of growth ([1]; C-390 0.5 mg/l in medium W) of the same molecule?
**A.** Tr

**Q.** And the intensity of growth ([1]; C-390 1 mg/l in medium W)?
**A.** NG

**Q.** And the intensity of growth ([1]; C-390 2 mg/l in medium W)?
**A.** NG

**Q.** What about the intensity of growth ([1]; C-390 4 mg/l in medium W) of the same molecule?
**A.** NG

**Q.** What about the intensity of growth ([1]; C-390 8 mg/l in medium W) of the same molecule?
**A.** NG

**Q.** What about the intensity of growth ([1]; C-390 16 mg/l in medium W) of the same molecule?
**A.** NG

**Q.** What about the intensity of growth ([1]; C-390 32 mg/l in medium W) of the same molecule?
**A.** NG

**Q.** What about the intensity of growth ([2]; C-390 0.5 mg/l in medium W) of the same molecule?
**A.** NG

**Q.** What about the intensity of growth ([2]; C-390 1 mg/l in medium W) of the same molecule?
**A.** NG

**Q.** What about the intensity of growth ([2]; C-390 2 mg/l in medium W) of the same molecule?
**A.** NG

**Q.** What about the intensity of growth ([2]; C-390 4 mg/l in medium W) of the same molecule?
**A.** NG

**Q.** And the intensity of growth ([2]; C-390 8 mg/l in medium W)?
**A.** NG

**Q.** And the intensity of growth ([2]; C-390 16 mg/l in medium W)?
**A.** NG

**Q.** What about the intensity of growth ([2]; C-390 32 mg/l in medium W) of the same molecule?
**A.** NG

**Q.** What about the intensity of growth ([3]; C-390 16 mg/l in medium W) of the same molecule?
**A.** NG

**Q.** And the intensity of growth ([3]; C-390 32 mg/l in medium W)?
**A.** NG

**Q.** And the intensity of growth [4]?
**A.** NG

**Q.** And the intensity of growth ([5]; C-390 8 mg/l in medium W)?
**A.** NG

**Q.** And the intensity of growth ([5]; C-390 16 mg/l in medium W)?
**A.** NG

**Q.** And the intensity of growth ([5]; C-390 32 mg/l in medium W)?
**A.** NG

**Q.** And the intensity of growth ([6]; C-390 2 mg/l in medium W)?
**A.** Tr

**Q.** What about the intensity of growth ([6]; C-390 4 mg/l in medium W) of the same molecule?
**A.** NG

**Q.** And the intensity of growth ([6]; C-390 8 mg/l in medium W)?
**A.** NG

**Q.** What about the intensity of growth ([6]; C-390 16 mg/l in medium W) of the same molecule?
**A.** NG

**Q.** What about the intensity of growth ([6]; C-390 32 mg/l in medium W) of the same molecule?
**A.** NG

**Q.** What about the intensity of growth ([7]; C-390 16 mg/l in medium W) of the same molecule?
**A.** NG

**Q.** And the intensity of growth ([7]; C-390 32 mg/l in medium W)?
**A.** NG

**Q.** And the intensity of growth ([8]; C-390 2 mg/l in medium W)?
**A.** Tr

**Q.** What about the intensity of growth ([8]; C-390 4 mg/l in medium W) of the same molecule?
**A.** NG

**Q.** What about the intensity of growth ([8]; C-390 8 mg/l in medium W) of the same molecule?
**A.** NG

**Q.** What about the intensity of growth ([8]; C-390 16 mg/l in medium W) of the same molecule?
**A.** NG

**Q.** What about the intensity of growth ([8]; C-390 32 mg/l in medium W) of the same molecule?
**A.** NG

**Q.** And the intensity of growth ([9]; C-390 16 mg/l in medium W)?
**A.** NG

**Q.** And the intensity of growth ([9]; C-390 32 mg/l in medium W)?
**A.** NG

**Q.** And the intensity of growth ([10]; C-390 2 mg/l in medium W)?
**A.** NG

**Q.** And the intensity of growth ([10]; C-390 4 mg/l in medium W)?
**A.** NG

**Q.** And the intensity of growth ([10]; C-390 8 mg/l in medium W)?
**A.** NG

**Q.** What about the intensity of growth ([10]; C-390 16 mg/l in medium W) of the same molecule?
**A.** NG

**Q.** And the intensity of growth ([10]; C-390 32 mg/l in medium W)?
**A.** NG

**Q.** And the intensity of growth ([11]; C-390 4 mg/l in medium W)?
**A.** NG

**Q.** What about the intensity of growth ([11]; C-390 8 mg/l in medium W) of the same molecule?
**A.** NG

**Q.** And the intensity of growth ([11]; C-390 16 mg/l in medium W)?
**A.** NG

**Q.** And the intensity of growth ([11]; C-390 32 mg/l in medium W)?
**A.** NG

**Q.** What about the intensity of growth ([12]; C-390 4 mg/l in medium W) of the same molecule?
**A.** NG

**Q.** And the intensity of growth ([12]; C-390 8 mg/l in medium W)?
**A.** NG

**Q.** And the intensity of growth ([12]; C-390 16 mg/l in medium W)?
**A.** NG

**Q.** What about the intensity of growth ([12]; C-390 32 mg/l in medium W) of the same molecule?
**A.** NG

**Q.** What about the intensity of growth ([13]; C-390 4 mg/l in medium W) of the same molecule?
**A.** NG

**Q.** And the intensity of growth ([13]; C-390 8 mg/l in medium W)?
**A.** NG

**Q.** And the intensity of growth ([13]; C-390 16 mg/l in medium W)?
**A.** NG

**Q.** What about the intensity of growth ([13]; C-390 32 mg/l in medium W) of the same molecule?
**A.** NG

**Q.** And the intensity of growth ([14]; C-390 4 mg/l in medium W)?
**A.** Tr

**Q.** What about the intensity of growth ([14]; C-390 8 mg/l in medium W) of the same molecule?
**A.** Tr

**Q.** What about the intensity of growth ([14]; C-390 16 mg/l in medium W) of the same molecule?
**A.** NG

**Q.** What about the intensity of growth ([14]; C-390 32 mg/l in medium W) of the same molecule?
**A.** NG

**Q.** What about the intensity of growth ([15]; C-390 2 mg/l in medium W) of the same molecule?
**A.** NG

**Q.** And the intensity of growth ([15]; C-390 4 mg/l in medium W)?
**A.** NG

**Q.** And the intensity of growth ([15]; C-390 8 mg/l in medium W)?
**A.** NG

**Q.** What about the intensity of growth ([15]; C-390 16 mg/l in medium W) of the same molecule?
**A.** NG

**Q.** What about the intensity of growth ([15]; C-390 32 mg/l in medium W) of the same molecule?
**A.** NG

**Q.** And the intensity of growth (Fusarium oxysporum (ENV); C-390 8 mg/l in medium W)?
**A.** NG

**Q.** And the intensity of growth (Fusarium oxysporum (ENV); C-390 16 mg/l in medium W)?
**A.** NG

**Q.** What about the intensity of growth (Fusarium oxysporum (ENV); C-390 32 mg/l in medium W) of the same molecule?
**A.** NG

**Q.** What about the intensity of growth ([16]; C-390 0.5 mg/l in medium W) of the same molecule?
**A.** NG

**Q.** And the intensity of growth ([16]; C-390 1 mg/l in medium W)?
**A.** NG

**Q.** And the intensity of growth ([16]; C-390 2 mg/l in medium W)?
**A.** NG

**Q.** What about the intensity of growth ([16]; C-390 4 mg/l in medium W) of the same molecule?
**A.** NG

**Q.** And the intensity of growth ([16]; C-390 8 mg/l in medium W)?
**A.** NG

**Q.** And the intensity of growth ([16]; C-390 16 mg/l in medium W)?
**A.** NG

**Q.** What about the intensity of growth ([16]; C-390 32 mg/l in medium W) of the same molecule?
**A.** NG

**Q.** And the intensity of growth ([17]; C-390 2 mg/l in medium W)?
**A.** NG

**Q.** What about the intensity of growth ([17]; C-390 4 mg/l in medium W) of the same molecule?
**A.** NG

**Q.** What about the intensity of growth ([17]; C-390 8 mg/l in medium W) of the same molecule?
**A.** NG

**Q.** And the intensity of growth ([17]; C-390 16 mg/l in medium W)?
**A.** NG

**Q.** And the intensity of growth ([17]; C-390 32 mg/l in medium W)?
**A.** NG

**Q.** And the intensity of growth ([18]; C-390 0.5 mg/l in medium W)?
**A.** NG

**Q.** And the intensity of growth ([18]; C-390 1 mg/l in medium W)?
**A.** NG

**Q.** And the intensity of growth ([18]; C-390 2 mg/l in medium W)?
**A.** NG

**Q.** What about the intensity of growth ([18]; C-390 4 mg/l in medium W) of the same molecule?
**A.** NG

**Q.** What about the intensity of growth ([18]; C-390 8 mg/l in medium W) of the same molecule?
**A.** NG

**Q.** And the intensity of growth ([18]; C-390 16 mg/l in medium W)?
**A.** NG

**Q.** And the intensity of growth ([18]; C-390 32 mg/l in medium W)?
**A.** NG

Reference: patent publication US20180030500A1, “ENRICHMENT AND SELECTIVE CULTURE OF MYCOBACTERIA” (priority 2015, published 2018)
